In patent publication US11833207B2, “Adipocyte-targeting DNA nanodrug and preparation and uses thereof” (HUNAN UNIVERSITY, priority 2020, dated 2023):

Assays:
[1] = EPR measurement of O2·− scavenging (DEPMPO trapper)
Protocol: Electron paramagnetic resonance (EPR) measurements were performed to evaluate the O2·^−- and ·OH-scavenging abilities of DNA hybrid nanostructures TADN. DEPMPO was used as the trapper. O2·^− was generated by dissolving KO2 in DMSO/crown ether (0.2 M). ·OH was produced by the Fenton-type reaction using H2O2 and CuSO4.

[2] = system: 3T3-L1 preadipocytes; type: cell-based; conditions: mouse, 24 h
Protocol: 3T3-L1 preadipocytes were seeded in a 96-well plate at 10^4/well. After culturing for 24 h, the preadipocytes were added with TA, TDM or TADN for another 24 h culture. The culture medium was removed, and the cells were washed twice with PBS, followed by the addition of 100 μL of fresh culture medium and 10 μL of CCK-8 for the CCK-8 assay according to the manufacturer's protocol. The UV absorbance of each well at 450 nm was recorded using a Synergy 2 multifunctional microplate reader (Bio-Tek, Winooski, Vt.).

[3] = target: BSA (Bos taurus, UniProt P02769); experiment: Nonspecific protein (BSA) absorption by BSA fluorescence
BSA, sequence (P02769 25-607): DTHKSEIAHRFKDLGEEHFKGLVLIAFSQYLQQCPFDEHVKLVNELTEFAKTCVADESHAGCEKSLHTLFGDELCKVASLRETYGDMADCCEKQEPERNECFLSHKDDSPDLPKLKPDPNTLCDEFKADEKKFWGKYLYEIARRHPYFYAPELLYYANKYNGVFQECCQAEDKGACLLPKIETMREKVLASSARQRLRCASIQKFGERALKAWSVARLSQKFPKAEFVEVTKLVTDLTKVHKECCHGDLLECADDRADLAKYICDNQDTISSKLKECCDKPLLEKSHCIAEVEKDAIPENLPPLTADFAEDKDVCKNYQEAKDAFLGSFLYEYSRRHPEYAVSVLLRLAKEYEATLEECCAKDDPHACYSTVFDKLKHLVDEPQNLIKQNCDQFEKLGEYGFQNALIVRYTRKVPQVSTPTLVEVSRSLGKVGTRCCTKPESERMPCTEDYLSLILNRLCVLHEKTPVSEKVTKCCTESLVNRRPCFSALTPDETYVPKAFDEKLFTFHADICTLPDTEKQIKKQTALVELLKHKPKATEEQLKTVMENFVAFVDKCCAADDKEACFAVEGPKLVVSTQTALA

## O=C(OC[C@H]1O[C@@H](OC(=O)c2cc(O)c(O)c(OC(=O)c3cc(O)c(O)c(O)c3)c2)[C@H](OC(=O)c2cc(O)c(O)c(OC(=O)c3cc(O)c(O)c(O)c3)c2)[C@@H](OC(=O)c2cc(O)c(O)c(OC(=O)c3cc(O)c(O)c(O)c3)c2)[C@@H]1OC(=O)c1cc(O)c(O)c(OC(=O)c2cc(O)c(O)c(O)c2)c1)c1cc(O)c(O)c(OC(=O)c2cc(O)c(O)c(O)c2)c1 [TA, tannic acid]
[1]; EPR
  O2·−-scavenging activity: comparable scavenging activity to TADN
[1]; after 24 h
  O2·−-scavenging stability: almost disappeared
[2]
  concentration above which cytotoxicity increases: above 25 μM
[3]
  protein adsorption: tended to absorb proteins
